Source: patent US5646136A, “Methods of inhibiting angiogenesis and tumor growth, and treating ophthalmologic conditions with angiostatic and therapeutic steroids” (Duke University, priority 1994, dated 1997)
“Also recorded” adds a separate entry of the source.

Columns and labels:
[1] = tested on: human pancreatic HPAF cell line; assay: Growth of human pancreatic HPAF tumor in nude mice; format: in vivo
Method: The HPAF tumor cell line is resistant to virtually all chemotherapeutic agents and grows rapidly in the nude mouse. Growth inhibition of this tumor for a period of time is thus indicative of significant anti-tumor activity.
Nude mice were implanted subcutaneously with 500,000 cells of the human pancreatic HPAF cell line. See Selvan et al., Drug Design and Discovery 9: […] (1992). Treatment with 9α-fluoro-11β-hydroxy-16β-methyl-1,4-androstadien-3-one 17β-carboxylic acid steroid (20 mg/kg subcutaneously in 90 percent propylene glycol-ethanol, injected twice daily 6 days per week) was commenced the following day and continued for one month. Growth of tumor was inhibited for about 3 weeks compared to controls. After this point, rapid growth ensued.

glucocorticoid activity = assay: Glucocorticoid activity (general statements)
[2] = tested on: corneal neovascularization; assay: Inhibition of corneal neovascularization in cauterized rat corneas, topical application four times per day for four days; format: in vivo; parameters: Neovascularization (total length of blood vessels in the cornea): unit not given here; conditions: for Inhibition of corneal vascularization (significance, in words): applied topically; for Corneal angiogenesis score / Neovascularization (total length of blood vessels in the cornea): mean ± S.D.; for Corneal angiogenesis score: subjective score 1+ to 4+; for Percent Inhibition of neovascularization (angiogenesis score) / Percent Inhibition (total vessel length): versus vehicle
Method: (§1) The ability of etianic acids to inhibit angiogenesis was evaluated in vivo in rats. Each animal had its corneas cauterized with silver nitrate/potassium nitrate. The cauterization causes the normally avascular cornea to undergo neovascularization (anglogenesis). This animal model, refined by Proia et al., Lab. Invest. 58: 473-479 (1988) and now a well-established assay, quantifies corneal neovascularization by computerized image analysis. […] Ophthalmol. Vis. Science 30: 1588-1593 (1989), and can provide a more definitive evaluation of angiostatic activity than models using the chorioallantoic membrane in the chick egg or the rabbit eye model. See Proia et al., Exp. Eye Res. (in press--to be published in Vol. 57 in 1993).
(§2) Female rats were obtained from Zivic-Miller Laboratories, Zelienople, Pa. There were 6-8 rats included in each treatment group. Neovascularization was induced by cauterizing both corneas of each anesthetized rat; this was performed by applying the tip of a silver nitrate/potassium nitrate to the cornea for 5-7.5 seconds.
The corneal tissues were treated with steroid formulations.
Steroids were formulated in vehicle containing 10 percent Tween 20 (polyoxyethylene sorbitan monolaurate) dissolved in 0.9 percent saline with percent (by volume) 0.2M tris (hydroxymethyl)aminomethane, pH 7.4. […] All steroids were tested at a concentration of 1 percent; additionally, some formulations were also tested at 0.01 percent, 0.1 percent, and 2.5 percent. Three 10 μl drops of each concentration of steroid were applied topically to each cauterized cornea four times per day (8:00 a.m., noon, 4:00 p.m., and 8:00 p.m.).
(§3) After four days of treatment, the animals were euthanized by rapid asphyxiation in a carbon dioxide chamber. The vasculature was perfused with a mixture of 10 percent india ink/11 percent gelatin/lactated Ringer's solution. Corneal tissue was dissected and prepared as flat mounts. During dissection, the corneas were examined with a dissecting microscope, and the degree of neovascularization was graded numerically from 1+ to 4+. After dehydration with alcohols, cleaning with xylene, mounting, and drying, the area of each cornea and the length of blood vessels were determined by computerized image analysis.
Statistical evaluation of inhibition of corneal neovascularization by each concentration of drug was evaluated using Mann Whitney U Tests (one-tailed; P<0.05=significant difference). […] In all cases, however, image analysis was used to quantitatively confirm visual observations.

thymus = assay: Thymus weight of rats treated topically in the corneal angiogenesis study; format: in vivo, rat
Method: as §1, §2
(§4) Steroids were formulated in vehicle containing 10 percent Tween 20 (polyoxyethylene sorbitan monolaurate) dissolved in 0.9 percent saline with percent (by volume) 0.2M tris (hydroxymethyl)aminomethane, pH 7.4. The steroids dissolved readily when the pH was adjusted to 7.0-8.0 with NaOH or KOH. All steroids were tested at a concentration of 1 percent; additionally, some formulations were also tested at 0.01 percent, 0.1 percent, and 2.5 percent. Three 10 μl drops of each concentration of steroid were applied topically to each cauterized cornea four times per day (8:00 a.m., noon, 4:00 p.m., and 8:00 p.m.).
as §3

[3] = Body weight of rats treated topically in the corneal angiogenesis study; format: in vivo, rat
Method: as §1, §2, §4
as §3, with “Corneal tissue was dissected and prepared as flat mounts. During dissection, the corneas were examined with a dissecting microscope, and the degree of neovascularization was graded numerically from 1+ to 4+.” left out

[4] = tested on: corneal neovascularization; assay: Corneal angiogenesis inhibition, subcutaneous injection once/day; format: in vivo, rat
Method: as §1, §2, §3
The ability of compounds 2013, 518, and 513 to inhibit corneal angiogenesis when injected subcutaneously once/day to was assessed on rats prepared as described in Example 8. Dexamethasone was used as a positive control.

With “9α-fluoro-11β-hydroxy-16β-methyl-1,4-androstadien-3-one 17β-carboxylic acid” the “Period for which growth of tumor was inhibited compared to controls” value ([1]; 20 mg/kg subcutaneously twice daily 6 days per week, one month) was “about 3 weeks”.
In the case of `C=C1C[C@H]2[C@@H]3C=C(C)C4=CC(=O)C=C[C@]4(C)[C@H]3CC[C@]2(C)[C@@]1(OC(C)=O)C(C)=O` [1-dehydro melegesterol acetate, 17α-acetoxy-6-methyl-16-methylene-1,4,6-pregnatriene-3,20-dione], the “Glucocorticoid activity (in words)” value (glucocorticoid activity) is reported as “lacks glucocorticoid activity”.
In the case of `C[C@]12C[C@](C)(O)[C@H]3[C@@H](CCC4=CC(=O)C=C[C@@]43C)[C@@H]1CC[C@@H]2O` [11β,17β-dihydroxy-11α-methyl-1,4-androstadien-3-one, reference compound], the “Glucocorticoid activity (in words)” value (glucocorticoid activity) is reported as “anti-glucocorticoid”.
In the case of `C[C@]12CCC(=O)C=C1CC[C@@H]1[C@@H]2[C@@H](O)C[C@@]2(C)[C@H]1CC[C@]2(O)C(=O)O` [Compound 323, 17β-carboxyl-11β,17α-dihydroxy-4-androsten-3-one], the “Inhibition of corneal vascularization (significance, in words)” value (from here on “Inhibition … (significance, in words)”) [2] is reported as “did cause significant inhibition of corneal vascularization; also recorded: significantly suppressed”, the Corneal angiogenesis score ([2]; topical 0.01%) is reported as 1.7 ± 1.1 and the Corneal angiogenesis score ([2]; topical 0.1%) is reported as 2.1 ± 0.5. For the same molecule, the Corneal angiogenesis score ([2]; topical 1.0%) was 1.3 ± 0.9 and the “Percent Inhibition of neovascularization (angiogenesis score)” value (“Percent Inhibition of neovascularization” below) ([2]; topical 1.0%) was 28%.
For `C[C@H]1C[C@H]2[C@@H]3CCC4=CC(=O)C=C[C@]4(C)[C@@]3(F)[C@@H](O)C[C@]2(C)[C@@]1(O)C(=O)O` [Compound 513, 17β-carboxyl-11β,17α-dihydroxy-9α-fluoro-16β-methyl-1,4-androstadien-3-one], the “Degree of inhibition of corneal angiogenesis compared with dexamethasone” value ([2]; 1 percent compound topical vs 0.1 percent dexamethasone sodium phosphate) was “appeared similar to that caused by topically applied 0.1 percent dexamethasone sodium phosphate”, the “Inhibition … (significance, in words)” value [2] was “did cause significant inhibition of corneal vascularization” and the Corneal angiogenesis score ([2]; topical 0.01%) was 1.8 ± 0.4. The “Percent Inhibition of neovascularization” value ([2]; topical 0.01%) was 0%, the Corneal angiogenesis score ([2]; topical 0.1%) was 1.1 ± 0.9 and the “Percent Inhibition of neovascularization” value ([2]; topical 0.1%) was 39%. The Corneal angiogenesis score ([2]; topical 1.0%) was 0.4 ± 0.4, the “Percent Inhibition of neovascularization” value ([2]; topical 1.0%) was 78% and the “Change in thymus weight (in words)” value (thymus; rat, in vivo) was “did not cause any significant change in thymus weight”. The “Decrease of thymus weight from control” value (thymus; rat, in vivo) was 45%, the Thymus weight (thymus; rat, in vivo) was 0.187±0.042 gm and the “Loss of body weight (in words)” value ([3]; rat, in vivo) was “no significant loss of body weight”. For the same molecule, the Neovasc. ([4]; 10 mg/kg/day subcutaneous) was 8.2 ± 1.1%, the “Reduction of corneal neovascularization versus vehicle” value ([4]; 10 mg/kg/day subcutaneous) was -46.7% and the “Growth of HPAF tumor (in words)” value ([1]; nude mice) was “inhibits growth of the human HPAF pancreatic tumor in nude mice”.
With `C[C@H]1C[C@@H]2[C@H]([C@@H](O)C[C@@]3(C)[C@H]2CC[C@]3(O)C(=O)O)[C@@]2(C)C=CC(=O)C=C12` [Compound 517, 17β-carboxyl-11β,17α-dihydroxy-6α-methyl-1,4-androstadien-3-one] the “Inhibition … (significance, in words)” value [2] was “did not significantly inhibit corneal vascularization”.
With `C[C@@H]1C[C@H]2[C@@H]3CCC4=CC(=O)C=C[C@]4(C)[C@@]3(F)[C@@H](O)C[C@]2(C)[C@@]1(O)C(=O)O` [Compound 518, 17β-carboxyl-11β,17α-dihydroxy-9α-fluoro-16α-methyl-1,4-androstadien-3-one] the “Inhibition … (significance, in words)” value [2] was “did not significantly inhibit corneal vascularization” and the Neovasc. ([4]; 10 mg/kg/day subcutaneous) was 15.7 ± 5.8%.
With `C[C@]12C[C@H](O)[C@H]3[C@@H](CCC4=CC(=O)CC[C@@]43C)[C@@H]1CC[C@@H]2C(=O)O` [Compound 525, 17β-carboxyl-11β-hydroxy-4-androsten-3one] the “Inhibition … (significance, in words)” value [2] was “did not significantly inhibit corneal vascularization”.
For `C[C@]12CC[C@@H](O)CC1CC[C@@H]1[C@@H]2[C@@H](O)C[C@@]2(C)[C@H]1CC[C@]2(O)C(=O)O` (stereo partly drawn) [Compound 526, 17β-carboxyl-3α,11β,17α-trihydroxy-androstane], the “Inhibition … (significance, in words)” value [2] was “did not significantly inhibit corneal vascularization”.
In the case of `C[C@]12CCC(=O)C=C1CC[C@@H]1[C@@H]2C(=O)C[C@@]2(C)[C@H]1CC[C@]2(O)C(=O)O` [Compound 527, 17β-carboxyl-17α-hydroxy-4-androsten-3,11-dione], the “Inhibition … (significance, in words)” value [2] is reported as “did not significantly inhibit corneal vascularization”.
With `C[C@@H]1C[C@H]2[C@@H]3C[C@H](F)C4=CC(=O)C=C[C@]4(C)[C@@]3(F)[C@@H](O)C[C@]2(C)[C@@]1(O)C(=O)O` [Compound 532, 6,9-difluoro-11β,17-dihydroxy-16α-methylpregna-1,4-diene-3-one-17β-carboxylic acid] the “Inhibition … (significance, in words)” value [2] was “did cause significant inhibition of corneal vascularization; also recorded: ability of this compound to inhibit corneal neovascularization; also recorded: significant differences between vehicle and Compound 532 at all concentrations”, the “Neovascularization (total length of blood vessels in the cornea)” value ([2]; topical 0.01 percent) was 355.4 ± 62.2 and the “Percent Inhibition (total vessel length)” value ([2]; topical 0.01 percent) was 12.3%. The “Neovascularization (total length of blood vessels in the cornea)” value ([2]; topical 0.1 percent) was 322.0 ± 78.0, the “Percent Inhibition (total vessel length)” value ([2]; topical 0.1 percent) was 20.6% and the “Neovascularization (total length of blood vessels in the cornea)” value ([2]; topical 1.0 percent) was 202.2 ± 74.3. For the same molecule, the “Percent Inhibition (total vessel length)” value ([2]; topical 1.0 percent) was 50.1% and the “Thymus weight difference between vehicle- and drug-treated groups (in words)” value (thymus; rat, in vivo) was “no significant difference between vehicle- and drug-treated groups”.
With `C[C@]12CC[C@H]3[C@@H](CCC4=CC(=O)CC[C@@]43C)[C@@H]1CC[C@@H]2C(=O)O` [Compound 1000, 4-androsten-3-one-17β-carboxylic acid] the “Inhibition … (significance, in words)” value [2] was “did not significantly inhibit corneal vascularization”.
For `C[C@@H]1C[C@H]2[C@@H]3CCC4=CC(=O)C=C[C@]4(C)[C@@]3(F)[C@@H](O)C[C@]2(C)[C@@]1(O)C(=O)CO` [dexamethasone, reference compound], the “Reduction of thymus weight” value (thymus; topical 0.1 percent, similar experiment) was 75%, the “Body weight less than control rats” value ([3]; topical 0.1 percent, end of four days of treatment) was 17% and the Neovasc. ([4]; 1 mg/kg/day subcutaneous) was 9.3 ± 2.2%. For the same molecule, the “Reduction of corneal neovascularization versus vehicle” value ([4]; 1 mg/kg/day subcutaneous) was -39.6%.
